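Compound exposure: 48 hours, 5 concentrations, 96-well plates. GI50 = concentration required for 50% inhibition of growth.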 Activity calls are given as the source filed them. Rule as the data show it: active = GI50 up to about 1.1 µM and inactive = higher.
Key:
Assay in all cases: NCI-60 cell line screen, 48 h
[1] = tested on: KM12
[2] = tested on: 786-0
[3] = tested on: COLO 205
[4] = tested on: ACHN
[5] = tested on: SK-MEL-5
[6] = tested on: SK-MEL-28
[7] = tested on: NCI-H226
[8] = tested on: UO-31
[9] = tested on: HOP-62
[10] = tested on: RXF 393
[11] = tested on: NCI-H460
[12] = tested on: A549
[13] = tested on: HCT-15
[14] = tested on: A498
[15] = tested on: Malme-3M
[16] = tested on: SF-268
[17] = tested on: MOLT-4
[18] = tested on: SK-OV-3

Compound | GI50 [1] | GI50 [2] | GI50 [3] | GI50 [4] | GI50 [5] | GI50 [6] | GI50 [7] | GI50 [8] | GI50 [9] | GI50 [10] | GI50 [11] | GI50 [12] | GI50 [13] | GI50 [14] | GI50 [15] | GI50 [16] | GI50 [17] | GI50 [18]
CC(=O)Oc1cc2c(cc1OCC(F)(F)F)[C@H]1CC[C@]3(C)[C@@H](OC(C)=O)CC[C@H]3[C@@H]1CC2=O | 27.7 µM (inactive) | 26.4 µM (inactive) | 30.8 µM (inactive) | 18.9 µM (inactive) | 17 µM (inactive) | 22.2 µM (inactive) | 46.6 µM (inactive) | 16 µM (inactive) | 25.1 µM (inactive) | 13.9 µM (inactive) | 26.9 µM (inactive) | 17.6 µM (inactive) | 16.6 µM | 6.18 µM (inactive) | 16.8 µM (inactive) | 21.1 µM (inactive) | 15.6 µM (inactive) | 22 µM (inactive)
Cc1c(-c2nc(N)nc(C3CC3)c2C)nc(N)nc1C1CC1 | > 100 µM (inactive) | > 100 µM (inactive) | > 100 µM (inactive) | > 100 µM (inactive) | > 100 µM (inactive) | > 100 µM (inactive) | > 100 µM (inactive) | > 100 µM (inactive) | > 100 µM (inactive) | > 100 µM (inactive) | > 100 µM (inactive) | > 100 µM (inactive) | > 100 µM | > 100 µM (inactive) | > 100 µM (inactive) | > 100 µM (inactive) | > 100 µM (inactive) | > 100 µM (inactive)
COc1ccc(SCc2cc(OC)ccc2OC)cc1 | 4.23 µM (inactive) | > 85.5 µM (inactive) | 15.6 µM (inactive) | 97.3 µM (inactive) | 16.1 µM (inactive) | 64.3 µM (inactive) | 25.3 µM (inactive) | 27.6 µM (inactive) | 59.8 µM (inactive) | 40.6 µM (inactive) | 37.4 µM (inactive) | 22.4 µM (inactive) | 6.58 µM | 18.7 µM (inactive) | 55.6 µM (inactive) | > 56.6 µM (inactive) | 8.24 µM (inactive) | 12 µM (inactive)
C=CCCCCCCC#CCCCCCCCCCC[C@@H]1C(=O)O[C@H](C)[C@@H]1O.CCCCCCCCC#CCCCCCCCCCC[C@@H]1C(=O)O[C@H](C)[C@@H]1O | 10.1 µM (inactive) | 15.8 µM (inactive) | 24.8 µM (inactive) | 17.7 µM (inactive) | 13.3 µM (inactive) | 24 µM (inactive) | 27.1 µM (inactive) | 15.6 µM (inactive) | 16 µM (inactive) | 11.4 µM (inactive) | 11.7 µM (inactive) | 14.1 µM (inactive) | 20.2 µM | 55.3 µM (inactive) | 17.5 µM (inactive) | 13.9 µM (inactive) | 12.6 µM (inactive) | 36.6 µM (inactive)
CCCCCCCCCCCCC1N=C(N)N2CCCC2=C1C(=O)OC (stereo not given) | 1.98 µM (inactive) | 1.74 µM (inactive) | 1.95 µM (inactive) | 5.38 µM (inactive) | 2.42 µM (inactive) | 1.69 µM (inactive) | 19.1 µM (inactive) | 8.26 µM (inactive) | 4.24 µM (inactive) | 47.8 µM (inactive) | 1.79 µM (inactive) | 8.67 µM (inactive) | 1.79 µM | 22.6 µM (inactive) | 1.8 µM (inactive) | 3.44 µM (inactive) | 1.47 µM (inactive) | 8.49 µM (inactive)
N/C(=N\N=C\c1nc2ccccc2o1)c1cnccn1 | > 100 µM (inactive) | 66.7 µM (inactive) | > 100 µM (inactive) | 70.8 µM (inactive) | > 100 µM (inactive) | > 100 µM (inactive) | > 100 µM (inactive) | > 100 µM (inactive) | 43.2 µM (inactive) | 49.5 µM (inactive) | 72.9 µM (inactive) | > 100 µM (inactive) | > 100 µM | > 100 µM (inactive) | 1.71 µM (inactive) | > 100 µM (inactive) | > 100 µM (inactive) | 42.7 µM (inactive)
COc1ccc(C(=O)/C=C/c2ccc3c(c2)OCO3)c(OCc2ccccc2)c1 | 4.83 µM (inactive) | > 67.8 µM (inactive) | > 75.5 µM (inactive) | 16.6 µM (inactive) | 25.6 µM (inactive) | > 100 µM (inactive) | 18.6 µM (inactive) | 37.2 µM (inactive) | > 100 µM (inactive) | 11 µM (inactive) | 8.22 µM (inactive) | 47.3 µM (inactive) | 5.08 µM | > 84.9 µM (inactive) | > 100 µM (inactive) | 6.76 µM (inactive) | 3.8 µM (inactive) | > 54.8 µM (inactive)
C/C(=C\C(=O)O)C(=O)N(C)c1ccccc1I | > 100 µM (inactive) | > 100 µM (inactive) | > 100 µM (inactive) | > 100 µM (inactive) | > 100 µM (inactive) | > 100 µM (inactive) | > 100 µM (inactive) | > 100 µM (inactive) | > 100 µM (inactive) | > 100 µM (inactive) | > 100 µM (inactive) | > 100 µM (inactive) | > 100 µM | > 100 µM (inactive) | > 100 µM (inactive) | > 100 µM (inactive) | > 100 µM (inactive) | > 100 µM (inactive)
CCN(CC)C(=C(C(Cl)=C(Cl)Cl)[N+](=O)[O-])N(CC)CC | > 100 µM (inactive) | > 100 µM (inactive) | > 100 µM (inactive) | 72.6 µM (inactive) | > 100 µM (inactive) | 49.1 µM (inactive) | > 100 µM (inactive) | 30.2 µM (inactive) | > 100 µM (inactive) | 17.3 µM (inactive) | 55 µM (inactive) | > 100 µM (inactive) | 62.2 µM | > 100 µM (inactive) | 19.6 µM (inactive) | 41 µM (inactive) | 27.2 µM (inactive) | > 100 µM (inactive)
CCC1CC2CN3CCc4c([nH]c5c(-c6c(OC)ccc7c8c([nH]c67)[C@]6(C(=O)OC)CC7CC(CC)C6N(CC8)C7)c(O)ccc45)[C@](C(=O)OC)(C2)C13 (stereo not given in full) | 12.4 µM (inactive) | 12.6 µM (inactive) | 11.4 µM (inactive) | 19.6 µM (inactive) | 13.6 µM (inactive) | 15.8 µM (inactive) | 4.92 µM (inactive) | 12.7 µM (inactive) | 15.2 µM (inactive) | 12.2 µM (inactive) | 14.7 µM (inactive) | 17.6 µM (inactive) | 15.2 µM | 15.1 µM (inactive) | > 10 µM (inactive) | 12.1 µM (inactive) | 2.64 µM (inactive) | 25.6 µM (inactive)
CC1C=C(NCC2(CO)CCC2)N=C(N)N1 (stereo not given) | > 100 µM (inactive) | > 100 µM (inactive) | > 100 µM (inactive) | > 100 µM (inactive) | > 100 µM (inactive) | > 100 µM (inactive) | > 100 µM (inactive) | > 100 µM (inactive) | > 100 µM (inactive) | > 100 µM (inactive) | > 100 µM (inactive) | > 100 µM (inactive) | > 100 µM | 91.6 µM (inactive) | > 100 µM (inactive) | > 100 µM (inactive) | > 100 µM (inactive) | > 100 µM (inactive)
O=C(c1ccccc1)c1ccc2c(c1)nc1n2C(c2c(Cl)cccc2Cl)SC1 (stereo not given) | 19.9 µM (inactive) | 72.6 µM (inactive) | 45.6 µM (inactive) | 71.6 µM (inactive) | 27.5 µM (inactive) | > 100 µM (inactive) | > 100 µM (inactive) | 23.9 µM (inactive) | > 100 µM (inactive) | 79.8 µM (inactive) | 40.2 µM (inactive) | 32.7 µM (inactive) | 56 µM | 58.7 µM (inactive) | 97.5 µM (inactive) | 67.5 µM (inactive) | 31.4 µM (inactive) | > 100 µM (inactive)
Cc1ccc([N+](=O)[O-])cc1S(=O)(=O)Nc1ccc(C2=NNC(c3ccccc3)C2)cc1 (stereo not given) | 13.4 µM (inactive) | 20.8 µM (inactive) | 16.9 µM (inactive) | 16.3 µM (inactive) | 14.7 µM (inactive) | 25.2 µM (inactive) | 32.9 µM (inactive) | 24.9 µM (inactive) | 11.5 µM (inactive) | 8.36 µM (inactive) | 15.1 µM (inactive) | 19.1 µM (inactive) | 10.4 µM | 13.2 µM (inactive) | 17 µM (inactive) | 16.8 µM (inactive) | 6.64 µM (inactive) | 15.5 µM (inactive)
CN(C)c1ccc2c(SCC(=O)OCC(=O)[C@@]3(O)CC[C@H]4[C@@H]5CCC6=CC(=O)C=C[C@]6(C)[C@H]5C(=O)C[C@@]43C)c3ccc(N(C)C)cc3nc2c1 | 6.5 µM (inactive) | 4.16 µM (inactive) | 5.79 µM (inactive) | 4.53 µM (inactive) | 15 µM (inactive) | 21.6 µM (inactive) | 14.8 µM (inactive) | 10.3 µM (inactive) | 57.9 µM (inactive) | 32.7 µM (inactive) | 3.24 µM (inactive) | 15.2 µM (inactive) | 3.3 µM | > 54.3 µM (inactive) | > 100 µM (inactive) | 5.82 µM (inactive) | 2.65 µM (inactive) | 27.4 µM (inactive)
CC1(C)[C@@H]2CC[C@@]1(C)C1(S[S+]1[O-])C21Cc2ccccc2C1 (stereo not given in full) | 56.1 µM (inactive) | 16.4 µM (inactive) | 30.6 µM (inactive) | 20.9 µM (inactive) | > 10 µM (inactive) | 23.1 µM (inactive) | > 100 µM (inactive) | 21.4 µM (inactive) | 81.1 µM (inactive) | 18.5 µM (inactive) | 21.5 µM (inactive) | 36.8 µM (inactive) | 22.6 µM | 28.7 µM (inactive) | 38.8 µM (inactive) | 33.1 µM (inactive) | 16.3 µM (inactive) | > 100 µM (inactive)
